Laboratory results taken from patent US12377100B2 (GILEAD SCIENCES, INC., priority 2015, dated 2025).

Experiments:
IL12p40 = assay: PBMC cytokine profiling assay, IL12-p40 induction; format: cell-based; settings: PBMC, human PBMCs, 24 hours incubation
Procedure, shortened: (§1)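 Cryopreserved healthy-donor human PBMCs (100k cells/well) were exposed for 24 h at 37 °C to a 10-point half-log compound series in 0.5% final DMSO. Secreted cytokines in the conditioned medium were quantified by MSD electrochemiluminescence, with TNFα samples diluted 1:9. AC50 was fitted by non-linear regression on percent activation normalised to plate controls.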

IFNα = assay: PBMC cytokine profiling assay, IFNα induction; format: cell-based; settings: PBMC, human PBMCs, 24 hours incubation
Procedure, shortened: as §1

[1] = Cytotoxicity assay, galactose-adapted HepG2 cells, Cell Titer Glo, 5 days; format: cell-based; settings: human, galactose-adapted HepG2, five days incubation, intracellular ATP, read-out: CC50 GALHEPG2 CTG 5D
Text: (§2) To assess potential off-target toxicity of certain compounds disclosed herein, the in vitro cytotoxicity of those compounds was profiled using a panel of 5 cell lines with various tissue origins. Compound cytotoxicity was examined in hepatoma-derived Huh-7 and HepG2 cells, prostate carcinoma-derived PC-3 cells, lymphoma derived MT-4 cells and a normal diploid lung cell line MRC-5. HepG2 and PC-3 cells used were adapted to grow in glucose-free galactose-containing medium. These cells have a relatively higher sensitivity to inhibitors of mitochondrial oxidative phosphorylation compared to the same cells maintained in standard glucose-containing culture medium (Marroquin et al., Toxicol. Sci. 2007; 97 (2):539-47). Cell viability was determined by measuring intracellular ATP levels following five days of continuous incubation with test compounds.
(§3) The human hepatoma Huh-7 cell line was obtained from ReBLikon GmbH (Mainz, Germany) {20879}. The MT-4 cell line (HTLV-1 transformed, human T lymphoblastoid cells) was obtained from the NIH AIDS Reagent program (Bathesda, MD). The human hepatoblastoma cell line HepG2, human prostate carcinoma cell line PC-3, and normal fetal lung derived MRC-5 cells were obtained from the American Type Culture Collection (ATCC, Manassas, VA).
(§4) Huh-7 cells were maintained in Dulbecco's Modified Eagle Medium (DMEM) supplemented with 10% fetal bovine serum (FBS, Hyclone, Logan, UT), 1% non-essential amino acids (Gibco, Carlsbad, CA). PC-3 and HepG2 cells were adapted to grow in 0.2% galactose-containing, glucose-free Dulbecco's Modified Eagle Medium (DMEM) supplemented with 10% fetal bovine serum (FBS, Hyclone, Logan, UT), 1% non-essential amino acids (Gibco, Carlsbad, CA), 1% Pyruvate (Cellgro), 1% Glutamax (Invitrogen, Carlsbad, CA). Galactose-adapted cells were maintained in the same culture medium. MRC-5 cells were maintained in Eagle's Minimum Essential Medium (EMEM) supplemented with 10% fetal bovine serum (FBS, Hyclone, Logan, UT). MT-4 cells were maintained in RPMI-1640 supplemented with 10% fetal bovine serum (FBS, Hyclone, Logan, UT). All cell culture media were also supplemented with 100 Units/mL penicillin, 100 μg/mL streptomycin (Gibco).
(§5) Using a Biotek uFlow Workstation (Biotek, Winooski, VT), 1500 HepG2, 1500 PC-3, 500 Huh7 or 1500 MRC-5 cells in 90 μL of culture media were dispensed into each well of black polystyrene tissue culture-treated 384-well plates. Plated cells were incubated for 24 hours in an incubator at 37° C., 5% CO2 and 90% humidity. Compound serial dilutions were performed in 100% DMSO in 384-well polypropylene (high recovery) plates on a Biomek FX Workstation (Beckman Coulter, Fullerton, CA). After 3-fold serial dilutions, 0.4 μL of compounds were transferred into 384-well plates containing cells using a Velocity 11 system equipped with a Bravo 384-well pipettor. The DMSO concentration in the final assay plates was 0.44% (v/v). Cells were incubated with compound(s) for five days at 37° C. Puromycin (44 μM final concentration) and DMSO (0.44%, v/v) were used as a positive and negative controls, respectively
(§6) At the end of the incubation period the cytotoxicity assay was performed as follows: Media from 384-well cell culture plates were aspirated with a Biotek EL405 plate-washer (Biotek) and cells were washed with 100 μL PBS once. Twenty microliters of Cell Titer Glo (Promega, Madison, WI) was added to each well of the plates with a Biotek uFlow liquid dispenser. Plates were incubated for 15 minutes at room temperature before luminescence was measured with a Perkin Elmer Envision Plate Reader (Perkin Elmer, Waltham, MA).
(§7) CC50 values were defined as the compound concentration that caused a 50% decrease in luminescence signal, and were calculated by non-linear regression using Pipeline Pilot software by applying a four parameter fit equation (Accelrys, San Diego, CA). Individual CC50 values are listed as μM concentrations.

[2] = MT-4 cytotoxicity assay, Cell Titer Glo, 5 days; format: cell-based, human; settings: human, MT-4 cells; MT-4, five days incubation, intracellular ATP; read-out: CC50 (MT4)
Text: as §2, §3, §4
(§8) For the MT-4 cytotoxicity assay, 0.4 μL of serially diluted compounds were added to 40 μl of cell maintenance media in 384-well black, solid bottom plate using a Biomek FX workstation (Beckman Coulter). Two thousand cells in 35 μL were added to each well using a Biotek uFlow Workstation (Biotek). Each assay plate contained 10 μM Puromycin (final concentration) and 0.5% DMSO in RPMI-1640 as positive and negative controls, respectively. Assay plates were incubated for five days at 37° C. in an incubator set at 5% CO2 and 90% humidity. After five days, 22 μL of Cell Titer Glo reagent (Promega) was added to the assay plates with a Biotek uFlow Workstation. Plates were subsequently placed on a Perkin Elmer Envision Plate Reader for five minutes before the luminescence signal was read.
as §7

[3] = Cytotoxicity assay, Huh-7 cells, Cell Titer Glo, 5 days; format: cell-based, human; settings: human, Huh-7 cells; Huh-7, five days incubation, intracellular ATP; read-out: CC50 HUH7 CTG 5D
Text: as §2, §3, §4, §5, §6, §7

[4] = Cytotoxicity assay, MRC-5 cells, Cell Titer Glo, 5 days; format: cell-based, human; settings: human, MRC-5 cells; MRC-5, five days incubation, intracellular ATP; read-out: CC50 MRC5 CTG 5D
Text: as §2, §3, §4, §5, §6, §7

[5] = Cytotoxicity assay, galactose-adapted PC-3 cells, Cell Titer Glo, 5 days; format: cell-based; settings: human, galactose-adapted PC-3, five days incubation, intracellular ATP, read-out: CC50 GALPC3 CTG 5D
Text: as §2, §3
as §4, with “(Gibco). […]” for “(Gibco).”
as §6, with “Twenty microliters of Cell Titer Glo (Promega, Madison, WI) was added to each well of the plates with a Biotek uFlow liquid dispenser.” left out, “MA). […]” for “MA).”

TNFα = assay: PBMC cytokine profiling assay, TNFα induction; format: cell-based; settings: PBMC, human PBMCs, 24 hours incubation
Procedure, shortened: as §1

MT-4 cells = assay: MT-4 cytotoxicity assay, Cell Titer Glo, 5 days; format: cell-based, human; settings: MT-4, five days incubation, intracellular ATP; read-out: CC50 (MT4)
Text: as §2, §3, §4, §8, §7

Huh-7 cells = assay: Cytotoxicity assay, Huh-7 cells, Cell Titer Glo, 5 days; format: cell-based, human; settings: Huh-7, five days incubation, intracellular ATP; read-out: CC50 HUH7 CTG 5D
Text: as §2, §3, §4, §5, §6, §7

MRC-5 cells = assay: Cytotoxicity assay, MRC-5 cells, Cell Titer Glo, 5 days; format: cell-based, human; settings: MRC-5, five days incubation, intracellular ATP; read-out: CC50 MRC5 CTG 5D
Text: as §2, §3, §4, §5, §6, §7

| SMILES | AC50 (IL12p40; Homo sapiens, 24 h) | AC50 (IFNα; Homo sapiens, 24 h) | CC50 at 5 days [1] | CC50 at 5 days [2] | CC50 at 5 days [3] | CC50 at 5 days [4] | CC50 at 5 days [5] | AC50 (TNFα; Homo sapiens, 24 h) | AC50 (IL12p40) | AC50 (IFNα) | CC50 (MT-4 cells) | CC50 (Huh-7 cells) | CC50 (MRC-5 cells) | AC50 (TNFα) |
| --- | --- | --- | --- | --- | --- | --- | --- | --- | --- | --- | --- | --- | --- | --- |
| CCCC[C@](C)(CO)Nc1nc(N)nc2cccnc12 [Example 59, (R)-2-((2-aminopyrido[3,2-d]pyrimidin-4-yl)amino)-2-methylhexan-1-ol] | 0.17 µM | 15 µM | 8.88 µM | 31.4 µM | 35.4 µM | 40.3 µM | 5.2 µM | 0.18 µM |  |  |  |  |  |  |
| CCCC[C@](C)(CNC(C)=O)Nc1nc(N)nc2c(C)ccnc12 [Example 62] |  |  | 44.4 µM |  |  |  |  |  | 0.91 µM | > 50 µM | 19.2 µM | 44.4 µM | 44.4 µM | 1 µM |
| CCCC[C@H](CO)Nc1nc(N)nc2ccsc12 [Y, reference compound] | 13 µM | > 50 µM | 0.19 µM | 1.42 µM | 2.31 µM | 0.95 µM | 0.18 µM | 11.2 µM |  |  |  |  |  |  |
